Reference: PubChem BioAssay (NCI)
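At the GI50, growth is halved. The concentration for full growth arrest is given as TGI.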

Experiments:
Assay in all cases: NCI anticancer screen, dose series, 384-well format
UACC-62 melanoma = system: UACC-62 melanoma
MDA-MB-468 breast = system: MDA-MB-468 breast
U251 glioblastoma = system: U251 glioblastoma
SNB-75 CNS = system: SNB-75 CNS
OVCAR-8 ovarian = system: OVCAR-8 ovarian
A498 renal = system: A498 renal
CAKI-1 renal = system: CAKI-1 renal
EKVX NSCLC = system: EKVX NSCLC
BT-549 breast = system: BT-549 breast
OVCAR-4 ovarian = system: OVCAR-4 ovarian
SN12C renal = system: SN12C renal
IGROV1 ovarian = system: IGROV1 ovarian
KM12 colon = system: KM12 colon
SK-MEL-28 melanoma = system: SK-MEL-28 melanoma
OVCAR-5 ovarian = system: OVCAR-5 ovarian
ACHN renal = system: ACHN renal
SK-MEL-5 melanoma = system: SK-MEL-5 melanoma
HOP-62 NSCLC = system: HOP-62 NSCLC
SF-539 CNS = system: SF-539 CNS
MOLT-4 leukemia = system: MOLT-4 leukemia
LOX IMVI melanoma = system: LOX IMVI melanoma
T-47D breast = system: T-47D breast
MDA-MB-231 breast = system: MDA-MB-231 breast
SR leukemia = system: SR leukemia
NCI-H460 NSCLC = system: NCI-H460 NSCLC
DU-145 prostate = system: DU-145 prostate
MCF7 breast = system: MCF7 breast
COLO 205 colon = system: COLO 205 colon
RPMI-8226 leukemia = system: RPMI-8226 leukemia
NCI/ADR-RES ovarian = system: NCI/ADR-RES ovarian
MDA-MB-435 melanoma = system: MDA-MB-435 melanoma
SF-295 CNS = system: SF-295 CNS
RXF 393 renal = system: RXF 393 renal
SF-268 CNS = system: SF-268 CNS
HCC-2998 colon = system: HCC-2998 colon
SNB-19 CNS = system: SNB-19 CNS
NCI-H226 lung = system: NCI-H226 lung
NCI-H322M lung = system: NCI-H322M lung
OVCAR-3 ovarian = system: OVCAR-3 ovarian
SK-OV-3 ovarian = system: SK-OV-3 ovarian
HL-60(TB) leukemia = system: HL-60(TB) leukemia
HCT-15 colon = system: HCT-15 colon
HS 578T breast = system: HS 578T breast
NCI-H23 lung = system: NCI-H23 lung
HOP-92 NSCLC = system: HOP-92 NSCLC
HCT-116 colon = system: HCT-116 colon
MALME-3M melanoma = system: MALME-3M melanoma
A549 NSCLC = system: A549 NSCLC
PC-3 prostate = system: PC-3 prostate
NCI-H522 lung = system: NCI-H522 lung
HT29 colon = system: HT29 colon
UACC-257 melanoma = system: UACC-257 melanoma
M14 melanoma = system: M14 melanoma
TK-10 renal = system: TK-10 renal

Q: Which results are given for `CCn1c(C(=O)N(C2CC2)C2CC2)cc2c3c(ncn3C)c(Nc3cc(C)n(C)n3)nc21`?
A: GI50 (UACC-62 melanoma): > 100 µM; TGI (UACC-62 melanoma): > 100 µM; GI50 (MDA-MB-468 breast): > 100 µM; TGI (MDA-MB-468 breast): > 100 µM; GI50 (U251 glioblastoma): > 100 µM; TGI (U251 glioblastoma): > 100 µM; GI50 (SNB-75 CNS): 26.2 µM; TGI (SNB-75 CNS): > 100 µM; GI50 (OVCAR-8 ovarian): > 100 µM; TGI (OVCAR-8 ovarian): > 100 µM; GI50 (A498 renal): > 100 µM; TGI (A498 renal): > 100 µM; GI50 (CAKI-1 renal): > 100 µM; TGI (CAKI-1 renal): > 100 µM; GI50 (EKVX NSCLC): > 100 µM; TGI (EKVX NSCLC): > 100 µM; GI50 (BT-549 breast): > 100 µM; TGI (BT-549 breast): > 100 µM; GI50 (OVCAR-4 ovarian): 33.4 µM; TGI (OVCAR-4 ovarian): > 100 µM; GI50 (SN12C renal): 3.43 µM; TGI (SN12C renal): > 100 µM; GI50 (IGROV1 ovarian): 44 µM; TGI (IGROV1 ovarian): > 100 µM; GI50 (KM12 colon): 0.675 µM; TGI (KM12 colon): > 100 µM; GI50 (SK-MEL-28 melanoma): > 100 µM; TGI (SK-MEL-28 melanoma): > 100 µM; GI50 (OVCAR-5 ovarian): > 100 µM; TGI (OVCAR-5 ovarian): > 100 µM; GI50 (ACHN renal): > 100 µM; TGI (ACHN renal): > 100 µM; GI50 (SK-MEL-5 melanoma): > 100 µM; TGI (SK-MEL-5 melanoma): > 100 µM; GI50 (HOP-62 NSCLC): > 100 µM; TGI (HOP-62 NSCLC): > 100 µM; GI50 (SF-539 CNS): > 100 µM; TGI (SF-539 CNS): > 100 µM; GI50 (MOLT-4 leukemia): 87.2 µM; TGI (MOLT-4 leukemia): > 100 µM; GI50 (LOX IMVI melanoma): 49.7 µM; TGI (LOX IMVI melanoma): > 100 µM; GI50 (T-47D breast): > 100 µM; TGI (T-47D breast): > 100 µM; GI50 (MDA-MB-231 breast): > 100 µM; TGI (MDA-MB-231 breast): > 100 µM; GI50 (SR leukemia): 8.59 µM; TGI (SR leukemia): 50.5 µM; GI50 (NCI-H460 NSCLC): > 100 µM; TGI (NCI-H460 NSCLC): > 100 µM; GI50 (DU-145 prostate): > 100 µM; TGI (DU-145 prostate): > 100 µM; GI50 (MCF7 breast): > 100 µM; TGI (MCF7 breast): > 100 µM; GI50 (COLO 205 colon): > 100 µM; TGI (COLO 205 colon): > 100 µM; GI50 (RPMI-8226 leukemia): > 100 µM; TGI (RPMI-8226 leukemia): > 100 µM; GI50 (NCI/ADR-RES ovarian): > 100 µM; TGI (NCI/ADR-RES ovarian): > 100 µM; GI50 (MDA-MB-435 melanoma): > 100 µM; TGI (MDA-MB-435 melanoma): > 100 µM; GI50 (SF-295 CNS): > 100 µM; TGI (SF-295 CNS): > 100 µM; GI50 (RXF 393 renal): > 100 µM; TGI (RXF 393 renal): > 100 µM; GI50 (SF-268 CNS): > 100 µM; TGI (SF-268 CNS): > 100 µM; GI50 (HCC-2998 colon): > 100 µM; TGI (HCC-2998 colon): > 100 µM; GI50 (SNB-19 CNS): > 100 µM; TGI (SNB-19 CNS): > 100 µM; GI50 (NCI-H226 lung): > 100 µM; TGI (NCI-H226 lung): > 100 µM; GI50 (NCI-H322M lung): > 100 µM; TGI (NCI-H322M lung): > 100 µM; GI50 (OVCAR-3 ovarian): > 100 µM; TGI (OVCAR-3 ovarian): > 100 µM; GI50 (SK-OV-3 ovarian): 34.8 µM; TGI (SK-OV-3 ovarian): > 100 µM; GI50 (HL-60(TB) leukemia): > 100 µM; TGI (HL-60(TB) leukemia): > 100 µM; GI50 (HCT-15 colon): > 100 µM; TGI (HCT-15 colon): > 100 µM; GI50 (HS 578T breast): > 100 µM; TGI (HS 578T breast): > 100 µM; GI50 (NCI-H23 lung): > 100 µM; TGI (NCI-H23 lung): > 100 µM; GI50 (HOP-92 NSCLC): > 100 µM; TGI (HOP-92 NSCLC): > 100 µM; GI50 (HCT-116 colon): > 100 µM; TGI (HCT-116 colon): > 100 µM; GI50 (MALME-3M melanoma): > 100 µM; TGI (MALME-3M melanoma): > 100 µM; GI50 (A549 NSCLC): > 100 µM; TGI (A549 NSCLC): > 100 µM; GI50 (PC-3 prostate): > 100 µM; TGI (PC-3 prostate): > 100 µM; GI50 (NCI-H522 lung): > 100 µM; TGI (NCI-H522 lung): > 100 µM; GI50 (HT29 colon): > 100 µM; TGI (HT29 colon): > 100 µM; GI50 (UACC-257 melanoma): > 100 µM; TGI (UACC-257 melanoma): > 100 µM; GI50 (M14 melanoma): > 100 µM; TGI (M14 melanoma): > 100 µM; GI50 (TK-10 renal): 81.8 µM; TGI (TK-10 renal): > 100 µM
